# Measurements as given in PMC5537346, “Characterisation and pharmacological analysis of a crustacean G protein-coupled receptor: the red pigment-concentrating hormone receptor of Daphnia pulex” (Scientific Reports, 2017).
# Entries after “also recorded” stand apart in the source; their conditions may differ. Read-outs that look alike come from different tables or passages of the source. Where a SMILES comes first, the peptide text is derived from it. [ ]: non-standard residue; d: D form. pGlu = O=C1CC[C@@H](C(=O)O)N1
# Experiments:
# [1] = test system: Palaemon pacificus; parameters: method as in PMID 19686751; conditions: in vivo, shrimp Palaemon pacificus; cited from earlier work
# [2] = test system: Nezara viridula; parameters: method as in PMID 19686751; conditions: in vivo; cited from earlier work
# [3] = target: T1, Dappu-RPCHR (Daphnia pulex RPCH receptor) (Daphnia pulex, UniProt A0A240FBD5); assay: in vitro cell-based bioluminescence (aequorin Ca2+) assay on Dappu-RPCHR expressing CHO-WTA11 cells; conditions: for activation of Dappu-RPCHR (in words): Locmi-ACP statement at 10 µM
# T1 sequence (A0A240FBD5 1-451): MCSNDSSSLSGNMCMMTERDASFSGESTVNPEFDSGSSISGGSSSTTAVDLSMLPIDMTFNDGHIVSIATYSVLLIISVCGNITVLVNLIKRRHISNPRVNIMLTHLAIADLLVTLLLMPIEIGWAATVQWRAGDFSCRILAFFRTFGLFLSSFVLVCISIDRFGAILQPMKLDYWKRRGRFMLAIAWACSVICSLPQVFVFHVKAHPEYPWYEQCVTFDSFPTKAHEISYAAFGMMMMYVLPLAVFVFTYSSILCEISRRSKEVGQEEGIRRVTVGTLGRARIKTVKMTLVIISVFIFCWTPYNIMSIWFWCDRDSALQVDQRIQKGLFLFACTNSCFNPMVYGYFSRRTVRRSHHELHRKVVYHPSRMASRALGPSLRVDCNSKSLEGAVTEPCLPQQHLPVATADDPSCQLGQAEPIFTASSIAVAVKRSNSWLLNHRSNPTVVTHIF
# Method: Pharmacological analyses were performed in Chinese hamster ovary (CHO) WTA11 cells stably co-expressing the bioluminescent protein apoaequorin and the promiscuous Gα16 subunit, which couples most agonist-induced GPCRs to the phospholipase C and Ca^2+ pathway, irrespective of their natural signalling cascade.
# CHO-WTA11 cells were cultured in monolayers in Dulbecco’s Modified Eagles Medium nutrient mixture F12-Ham (DMEM/F12) with L-glutamine, 15 mM HEPES, sodium bicarbonate and phenol red (Sigma-Aldrich) supplemented with 100 IU/ml penicillin and 100 µg/ml streptomycin (Gibco), 10% heat-inactivated fetal bovine serum (Gibco) and […] zeocin (Gibco). All cells were maintained in an incubator at 37 °C with a constant supply of 5% CO2.
# Transfections with pcDNA3.1-Dappu-RPCHR or empty pcDNA3.1 vector were carried out in T75 flasks at 60–80% confluency. Transfection medium was prepared using the Lipofectamine LTX Kit (Invitrogen) with 2.5 ml Opti-MEM® (Gibco), 12.5 µl PlusTM Reagent and 5 µg vector construct in 5 ml polystyrene round-bottom tubes. After a 5 min incubation period at room temperature, 30 µl LTX was added to the medium. After a further incubation period of 30 min at room temperature, the medium was removed and DNA/LTX mix was added dropwise to the cells followed by 3 ml of fresh complete medium.
# Following transfection, cells were incubated overnight (37 °C, 5% CO2), then 10 ml of cell medium was added followed by a second overnight incubation (37 °C, 5% CO2). Ligand-induced changes in intracellular Ca^2+ were then monitored in the cells as described below.
# CHO-WTA11 cells transfected with receptor construct (or empty vector) plasmid were detached with PBS, complemented with 0.2% EDTA (pH 8.0), and rinsed off the flask with DMEM/F12 with L-glutamine and 15 mM HEPES (Sigma-Aldrich). The number of viable and nonviable cells was determined using a TC20 automated Cell Counter (BIO-RAD). The cells were pelleted for 5 minutes at 800 rpm and resuspended to a density of 5.10^6 cells/ml in sterile filtered bovine serum albumin (BSA) medium (DMEM/F12 with L-glutamine and 15 mM Hepes, supplemented with 0.1% BSA) and loaded with 5 µM Coelenterazine_h (Invitrogen) for 4 h in the dark, at room temperature, while gently shaking to reconstitute the holo-enzyme aequorin. After a 10-fold dilution, cell solution (50 µl) was delivered to each well in a 96-well plate (~25000 cells/well) and cells were exposed to potential ligands reconstituted in BSA medium and distributed across the plate. In every row, BSA medium alone was placed in one well to serve as the negative control (blank). The Ca^2+ response was recorded for 30 s on a Mithras LB 940 (Berthold Technologies). After 30 s, 0.1% Triton X-100, a non-ionic surfactant, was added to the same well to measure the total cellular Ca^2+ response. The total response (ligand + Triton X-100), which is directly related to the number of cells present in the well, was used to normalise the response. The response of each negative control was subtracted from the luminescence obtained for wells within the same row. Calculations were made using the output file from the Microwin software (Berthold Technologies) in Excel (Microsoft). Further analysis was done in GraphPad Prism 5.
# [4] = Table 2, analogues of Dappu-RPCH
compound,measurement,setting,value
"CC(C)[C@H](NC(=O)[C@@H]1CCC(=O)N1)C(=O)N[C@@H](CC(N)=O)C(=O)N[C@@H](Cc1ccccc1)C(=O)N[C@@H](CO)C(=O)N[C@H](C(=O)N[C@@H](CO)C(=O)N[C@@H](Cc1c[nH]c2ccccc12)C(N)=O)[C@@H](C)O [Dappu-RPCH, pQVNFSTSWamide] ([pGlu]VNFSTSW-NH2)",effect on pigment migration in a decapod crustacean,[1],could not affect pigment migration
same,biological activity in the green stink bug,[2],caused measurable biological activity
same,EC50,[3],0.065 nM
same,concentration at which full activity was achieved,[3],0.1 nM
same,EC50,"[3]; Table 1, AKH/RPCH and related peptides, calculated from dose-response curves",0.0645 nM
same,EC50,[3]; [4],0.0645 nM
"CC(C)[C@H](NC(=O)[C@@H]1CCC(=O)N1)C(=O)N[C@@H](CC(N)=O)C(=O)N[C@@H](Cc1ccccc1)C(=O)N[C@@H](CO)C(=O)N[C@H](C(=O)N[C@@H](CO)C(=O)N[C@@H](Cc1c[nH]c2ccccc12)C(=O)O)[C@@H](C)O [[Trp-OH]Dappu-RPCH, pQVNFSTSW-OH] ([pGlu]VNFSTSW-OH)",EC50,[3]; [4],17.4 nM
same,fold lower affinity / potency relative to Dappu-RPCH,[3]; from EC50 values,270 fold
pQTFQYSRGWTNamide [Dappu-Crz],activation of Dappu-RPCHR (in words),[3],did not activate the receptor; also recorded: could not activate the Dappu-RPCHR at all
pQVTFSRDWSPamide [Locmi-ACP],activation of Dappu-RPCHR (in words),[3],only slightly active
same,% of the maximum activation,[3]; peptide concentration of 10 µM,30%
